Laboratory results: publication PMC6225304, “Design, Synthesis, and Neuroprotective Effects of a Series of Pyrazolines against 6-Hydroxydopamine-Induced Oxidative Stress” (Molecules : A Journal of Synthetic Chemistry and Natural …, 2018)
Where “and” joins values, the source holds several entries; their conditions need not be identical. Equal entries are not always repeated. Where two headings read alike, the source gives them in different places.

Legend:
[1] = system: differentiated PC-12 Adh cells; assay: Neuroprotective activity against 6-OHDA-induced neurotoxicity (WST-1 cell viability); format: cell-based, rat; conditions: for induction in cell viability percentage compared with the 6-OHDA-positive control group (statistical analysis): 100 µg/mL, one-way ANOVA and Tukey’s post hoc test, ** p < 0.01
Protocol: (§1) PC-12 Adh cells were cultured in 10% horse serum, 5% fetal bovine serum, and 1% penicillin-streptomycin containing DMEM growth medium, at 37 °C in a humidified incubator with 5% CO2. The proliferating cells were passaged 1:2 to new 25 and/or 75 cm^2 flasks and cell stocks were prepared in order to use in future experiments. In order to induce PC-12 Adh cell differentiation into neuronal phenotype, growth medium was changed with 1% fetal bovine serum, 1% penicillin-streptomycin and 100 nM NGF containing DMEM differentiation medium.
(§2) The differentiated PC-12 Adh cells were scratched and plated onto 96-well culture plates at 5 × 10^3 density per well. […] After 24 h, the neuroprotective effects of the compounds were determined by WST-1 cell viability assay as explained above. The graphics were drawn according to the cell viability, which was expressed as percentage of the surviving control cells in the study.
(§3) The graphics were drawn with Graphpad Prism 6.0 software and statistically analyzed using one-way ANOVA and Tukey’s post hoc test.

[2] = system: differentiated PC-12 Adh cells; assay: WST-1 cell viability assay for non-cytotoxic concentrations; format: cell-based, rat; conditions: for IC50: Rattus norvegicus, read-out: IC50 (cell viability assay)
Protocol: as §1
Differentiated PC-12 Adh cells were stained with Trypan blue solution and counted by a cell counter device (Cedex XS, Innovatis, Malvern, PA, USA) in order to determine the appropriate cell numbers before the experiments.
In order to obtain non-cytotoxic concentrations of the compounds, the viability of neuronal cells was measured by using 2-(4-iodophenyl)-3-(4-nitrophenyl)-5-(2,4-disulfophenyl)-2H-tetrazolium sodium salt (WST-1) assay (Roche, Mannheim, Germany). The test is based on the cleavage of the tetrazolium salt WST-1 in formazan by mitochondrial dehydrogenases in viable cells. The formazan dye was quantified in a scanning multiwell spectrophotometer by measuring the absorbance of the dye at 420 nm. The differentiated PC-12 Adh cells were scratched and plated onto 96-well culture plates at 5 × 10^3 density per well. […] After the incubation period, the cell proliferation reagent WST-1 (10 μL per well) was added to the wells; and absorbances were measured after 3 h using a Cytation 3 cell imaging multi-mode reader at 420 nm (BioTek, Winooski, VT, USA). The measured absorbances directly correlated to the number of viable cells.

[3] = Neuroprotective activity against 6-OHDA-induced neurotoxicity (WST-1 cell viability); format: cell-based, rat; conditions: rat, 150 µM 6-OHDA alone for 24 h (positive control); % of the control
Protocol: as §1, §2, §3

[4] = 100 µg/mL compound for 6 h, then 150 µM 6-OHDA for 24 h
[5] = differentiated PC-12 Adh cells, 24 h treatment, WST-1

SMILES | IC50 [2, 5] [µg/mL] | other results
Cc1ccc(/C=C/C(=O)c2ccco2)cc1 [Compound 1, 1-(2-Furanyl)-3-aryl-2-propen-1-one] | 12 | reduction in cell viability ([1]; 10 µg/mL compound for 6 h, then 150 µM 6-OHDA for 24 h): 40%; reduction in cell viability [1, 4]: 97%; cytotoxicity (effect on cell viability, in words) ([2]; differentiated PC-12 Adh cells, 100 µg/mL): highly cytotoxic; melting point: 111 to 113 °C
O=C(/C=C/c1ccc2c(c1)OCO2)c1cccs1 [Compound 2, 1-(2-Thienyl)-3-aryl-2-propen-1-one] | 345 | reduction in cell viability [1, 4]: 34.1%
Cc1ccc(C2CC(c3ccco3)=NN2c2ccccc2)cc1 (centres unmarked) [Compound 3a, 1-Phenyl-3-(2-furanyl)-5-(4-methylphenyl)-2-pyrazoline] | > 400 | –
Cc1ccc(C2CC(c3ccco3)=NN2c2ccc(C#N)cc2)cc1 (centres unmarked) [Compound 3b, 1-(4-Cyanophenyl)-3-(2-furanyl)-5-(4-methylphenyl)-2-pyrazoline] | 204 | –
Cc1ccc(C2CC(c3ccco3)=NN2c2ccc(F)cc2)cc1 (centres unmarked) [Compound 3c, 1-(4-Fluorophenyl)-3-(2-furanyl)-5-(4-methylphenyl)-2-pyrazoline] | 353 | –
Cc1ccc(C2CC(c3ccco3)=NN2c2ccc(Cl)cc2)cc1 (centres unmarked) [Compound 3d, 1-(4-Chlorophenyl)-3-(2-furanyl)-5-(4-methylphenyl)-2-pyrazoline] | > 400 | –
Cc1ccc(C2CC(c3ccco3)=NN2c2ccc(Br)cc2)cc1 (centres unmarked) [Compound 3e, 1-(4-Bromophenyl)-3-(2-furanyl)-5-(4-methylphenyl)-2-pyrazoline] | 398 | –
Cc1ccc(C2CC(c3ccco3)=NN2c2ccc(C)cc2)cc1 (centres unmarked) [Compound 3f, 1-(4-Methylphenyl)-3-(2-furanyl)-5-(4-methylphenyl)-2-pyrazoline] | > 400 | –
COc1ccc(N2N=C(c3ccco3)CC2c2ccc(C)cc2)cc1 (centres unmarked) [Compound 3g, 1-(4-Methoxyphenyl)-3-(2-furanyl)-5-(4-methylphenyl)-2-pyrazoline] | > 400 | –
Cc1ccc(C2CC(c3ccco3)=NN2c2ccc(S(C)(=O)=O)cc2)cc1 (centres unmarked) [Compound 3h, 1-(4-Methylsulfonylphenyl)-3-(2-furanyl)-5-(4-methylphenyl)-2-pyrazoline] | > 400 | reduction in cell viability [1, 4]: 20%; induction in cell viability percentage compared with the 6-OHDA-positive control group (statistical analysis) [1]: significant
Cc1ccc(C2CC(c3ccco3)=NN2c2ccc(S(N)(=O)=O)cc2)cc1 (centres unmarked) [Compound 3i, 1-(4-Sulfonamidophenyl)-3-(2-furanyl)-5-(4-methylphenyl)-2-pyrazoline] | 205 | –
c1ccc(N2N=C(c3cccs3)CC2c2ccc3c(c2)OCO3)cc1 (centres unmarked) [Compound 4a, 1-Phenyl-3-(2-thienyl)-5-(1,3-benzodioxol-5-yl)-2-pyrazoline] | > 400 | –
N#Cc1ccc(N2N=C(c3cccs3)CC2c2ccc3c(c2)OCO3)cc1 (centres unmarked) [Compound 4b, 1-(4-Cyanophenyl)-3-(2-thienyl)-5-(1,3-benzodioxol-5-yl)-2-pyrazoline] | > 400 | –
Fc1ccc(N2N=C(c3cccs3)CC2c2ccc3c(c2)OCO3)cc1 (centres unmarked) [Compound 4c, 1-(4-Fluorophenyl)-3-(2-thienyl)-5-(1,3-benzodioxol-5-yl)-2-pyrazoline] | > 400 | –
Clc1ccc(N2N=C(c3cccs3)CC2c2ccc3c(c2)OCO3)cc1 (centres unmarked) [Compound 4d, 1-(4-Chlorophenyl)-3-(2-thienyl)-5-(1,3-benzodioxol-5-yl)-2-pyrazoline] | > 400 | –
Brc1ccc(N2N=C(c3cccs3)CC2c2ccc3c(c2)OCO3)cc1 (centres unmarked) [Compound 4e, 1-(4-Bromophenyl)-3-(2-thienyl)-5-(1,3-benzodioxol-5-yl)-2-pyrazoline] | > 400 | –
Cc1ccc(N2N=C(c3cccs3)CC2c2ccc3c(c2)OCO3)cc1 (centres unmarked) [Compound 4f, 1-(4-Methylphenyl)-3-(2-thienyl)-5-(1,3-benzodioxol-5-yl)-2-pyrazoline] | 239 | –
COc1ccc(N2N=C(c3cccs3)CC2c2ccc3c(c2)OCO3)cc1 (centres unmarked) [Compound 4g, 1-(4-Methoxyphenyl)-3-(2-thienyl)-5-(1,3-benzodioxol-5-yl)-2-pyrazoline] | 252 | –
CS(=O)(=O)c1ccc(N2N=C(c3cccs3)CC2c2ccc3c(c2)OCO3)cc1 (centres unmarked) [Compound 4h, 1-(4-Methylsulfonylphenyl)-3-(2-thienyl)-5-(1,3-benzodioxol-5-yl)-2-pyrazoline] | > 400 | reduction in cell viability [1, 4]: 23%; induction in cell viability percentage compared with the 6-OHDA-positive control group (statistical analysis) [1]: significant
NS(=O)(=O)c1ccc(N2N=C(c3cccs3)CC2c2ccc3c(c2)OCO3)cc1 (centres unmarked) [Compound 4i, 1-(4-Sulfonamidophenyl)-3-(2-thienyl)-5-(1,3-benzodioxol-5-yl)-2-pyrazoline] | > 400 | –
NCCc1cc(O)c(O)cc1O [Compound 6-OHDA, 6-hydroxydopamine] | – | reduction in cell viability ([1]; 150 µM 6-OHDA alone for 24 h (positive control)): 42.13% and 43% and 42%; viability at 24 h, 150 µM [3]: 57%; IC50 ([2]; PC-12, 24 h): 150 µM
